Data as given in article PMC5824344 (ACS Chemical Biology, 2017).

Experiments:
[1] = system: DENV2 strain 16681 in primary human MDMΦ; test: DENV primary MDMΦ antiviral assay (infectious titer by plaque assay); assay type: cell-based, dengue virus; details: Dengue virus, DENV2; dengue-infected MDMΦ, 7 donors; read-out: IC50 for DENV inhibition (infectious virus titer)
Method: each well was scored as either positive (≥ 5 stained cells) or negative. TCID50 values were calculated according to the method of Reed and Muench.8
5.7 DENV Primary MDMΦ Antiviral Assay
DENV2 strain 16681 (a gift from Prof. E. Gould, Centre for Ecology and Hydrology, Oxford, United Kingdom) was propagated in the C6/36 cell line. In the antiviral assay, MDMΦ cells (7 donors) were seeded in a 24-well plate at a density of 1× 10^6 cells/well in 1 mL of growth media. The cells were inoculated for 2 h with DENV2 16681 strain at an MOI of 1. […]
The infectious DENV titres in supernatants collected were evaluated by plaque assay as described previously.9 Brieﬂy, LLC-MK2 cells were seeded in conﬂuent monolayers in a 12-well plate. Four 10-fold dilutions of each supernatant to be analyzed were prepared in minimum essential media (MEM, Gibco), supplemented with 100 µg mL−1 streptomycin, 100 U mL−1 penicillin and 10% (v/v) FCS. […]
After 1 d, plaques were observed and counted from the underside of the plate by eye. […]
18 healthy male BALB/c mice (8 – 12 weeks old) weighing between 20 and 35 g were procured from ACTREC, Mumbai, India. […] Temperature and humidity were recorded by an auto-controlled data logging system and maintained at 22± 3◦C and 55± 15% humidity, respectively. […]

[2] = Pharmacokinetics and biodistribution study in mice (IV and PO); assay type: in vivo, BALB/c mice
Method: Supplemental Figure 4: Mouse biodistribution of orally-administered 4. Mice were treated with a single dose of 4 by oral gavage (PO, 10 mg/kg). The mice were sacriﬁced at 30 min, 4 h, and 24 h after 4 administration, and the indicated tissues homogenized and analyzed for 4 by HPLC. While serum levels are much lower than […]
and kidney at 0.5 hours. At 4 and 24 h, as in the IV cohort, 4 remains at a higher concentration in the liver than in other tissues. Each data point represents the mean of 3 animals with error bars representing standard deviation (GraphPad Prism).
(also on this page, place not known: Serum Brain Liver Kidney Heart Spleen Lung 0 500 1000 1500 2000 Tissue h h (ng per g tissue) h 0.5 24 4)
(1 picture or pasted object on this page, not shown here)
The adherent monolayers were washed once with Hank’s buﬀered salt solution (Gibco), then inoculated with 100 µL of analyte and 100 µL of the supplemented MEM used to prepare the dilutions. The plates were rocked at 20 ◦C for 90 min, after which the inoculum was removed and nutrient-supplemented primary overlay (1 mL) was added to each well. The overlay was allowed to solidify at 20 ◦C, before returning the cells to the incubator. After 5 d, nutrient-supplemented, neutral red-containing secondary overlay (1 mL) was added to each well and allowed to solidify at 20 ◦C, then the cells were returned to the incubator.
After 1 d, plaques were observed and counted from the underside of the plate by eye.
5.10 Pharmacokinetics and Biodistribution Study
The study was carried out by Sai Life Science, Ltd. All procedures were in accordance with the guidelines provided by the Committee for the Purpose of Control and Supervisions of Experiments on Animals as published in The Gazette of India, December 15, 1998. Prior approval of the Institutional Animal Ethics Committee was obtained before initiation of the […]
18 healthy male BALB/c mice (8 – 12 weeks old) weighing between 20 and 35 g were procured from ACTREC, Mumbai, India. Illumination was controlled to give a cycle of 12 h light and 12 h dark. Temperature and humidity were recorded by an auto-controlled data logging system and maintained at 22± 3◦C and 55± 15% humidity, respectively. Animals were provided laboratory rodent diet (Vetcare India Pvt. Ltd.) and fresh reverse-osmosis, UV-treated water ad libitum. The mice were randomly divided into two groups. One group was treated with 4 intravenously (IV) at a dose of 2 mg/kg, while the other group was treated with an oral (per os, PO) dose of 10 mg/kg. The dosing volume was 5 mL/kg for IV treatment and 10 mL/kg for PO treatment. Blood samples were collected from three mice from each group under light isoﬂurane anaesthesia before dosing and at 0.25, 0.5, 1, 2, 4, 8 and 24 h after dosing. An additional blood sample was taken for the IV group at 0.08 h after dosing. After collection, potassium tetraethylenediamine was added to the sample as an anticoagulant. Plasma was immediately harvested by centrifugation and then stored at –70 ◦C until analysis. At 0.5, 4, and 24 h after dosing, 3 mice from each group

[3] = BALB/c mice, oral (PO, 10 mg/kg)
[4] = mice, single dose by oral gavage (PO, 10 mg/kg)

In the case of `Cc1c(C)c2c(c(C)c1OCCCCCN1CC(O)C(O)C(O)C1CO)CCC(C)(CCCC(C)CCCC(C)CCCC(C)C)O2` (stereo not drawn) [Compound 4, 5′-tocopheroxypentyl-DNJ], the IC50 [1] is reported as 12.7 µM, the “change of amount present in the liver between the 4 and 24 h time points” value ([2]; BALB/c mice) is reported as “did not decrease” and the oral bioavailability ([2]; BALB/c mice) is reported as “poor oral bioavailability”. For the same molecule, the “maximum blood plasma concentration” value [2, 3] was 46 nM, the “time of maximum blood plasma concentration” value [2, 3] was 8 h and the “tissue in which compound was detected in the highest amounts” value ([2]; BALB/c mice, oral and intravenous administration) was “highest amounts in the liver”. The half-life ([2]; male, mouse, plasma, BALB/c mice (Figure 3B), read-out: plasma terminal half-life (converted)) was 8.79 h, the “concentration in the liver relative to other tissues at 4 and 24 h” value [2, 4] was “higher” and the “tissue levels at 0.5 hours” value [2, 4] was “high levels are achieved in the liver”.
